Assay results: patent US20240041042A1, “1-(PYRIDYL)-5-AZINYLPYRAZOLE DERIVATIVES, AND THEIR USE FOR CONTROL OF UNDESIRED PLANT GROWTH” (Bayer Aktiengesellschaft, priority 2020, published 2024)
Where two headings read alike, the source gives them in different places.

Legend:
Type in all cases: in vivo
[1] = system: Echinochloa crus-galli (ECHCG); test: Pre-emergence herbicidal action against ECHCG; conditions: dosage 320 g/ha
Outline: (§1)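 Dosages of 320 g/ha or less; pre-emergence; WP or EC in aqueous spray, 0.5% additive, 600 l/ha; greenhouse; visual % effect after ~3 wk relative to control pots.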

[2] = system: Abutilon theophrasti (ABUTH); test: Post-emergence herbicidal action against ABUTH; conditions: 320 g/ha, visual rating about 3 weeks after treatment vs untreated controls (100% = plants have died, 0% = like control plants)
Outline: (§2)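 Rates were 320 g/ha or below, applied as aqueous WP/EC spray with 0.5% additive (600 l/ha) onto one-leaf-stage plants. About 3 weeks later in the greenhouse, damage was scored visually against untreated plants on a 0–100% scale, where 100% means plants died.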

Avena fatua (AVEFA) [3] = test: Pre-emergence herbicidal action against AVEFA; conditions: 320 g/ha, visual scoring after about 3 weeks vs untreated controls
Outline: as §1

[4] = system: Verconica persica (VERPE); test: Post-emergence herbicidal action against VERPE
Outline: as §2

Setaria viridis (SETVI) = test: Pre-emergence herbicidal action against SETVI; conditions: dosage 320 g/ha
Outline: as §1

[5] = system: Alopecurus myosuroides (ALOMY); test: Pre-emergence herbicidal action against ALOMY; conditions: 320 g/ha; scored visually after about 3 weeks; 100% = plants have died
Outline: as §1

[6] = system: Polygonum convolvulus (POLCO); test: Post-emergence herbicidal action against POLCO; conditions: dosage 320 g/ha
Outline: as §2

[7] = system: Verconica persica (VERPE); test: Pre-emergence herbicidal action against VERPE
Outline: as §1

[8] = system: Amaranthus retroflexus (AMARE); test: Pre-emergence herbicidal action against AMARE; conditions: 320 g/ha, visual scoring after about 3 weeks vs untreated controls
Outline: as §1

[9] = system: Pharbitis purpurea (PHBPU); test: Pre-emergence herbicidal action against PHBPU; conditions: dosage 320 g/ha
Outline: as §1

[10] = system: Polygonum convolvulus (POLCO); test: Pre-emergence herbicidal action against POLCO; conditions: dosage 320 g/ha
Outline: as §1

Avena fatua (AVEFA) [11] = test: Post-emergence herbicidal action against AVEFA; conditions: 320 g/ha, visual rating about 3 weeks after treatment
Outline: as §2

[12] = system: Echinochloa crus-galli (ECHCG); test: Post-emergence herbicidal action against ECHCG
Outline: as §2

Oryza sativa (ORYSA) = conditions: crop plant compatibility
Outline: (§3)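 One-leaf-stage crops (2–3 wk post-sowing, sandy loam, greenhouse) sprayed on green parts; 0.5% additive, 600 l/ha water. Rated by eye ~3 wk later, % vs untreated; suffixes a/b/c mark different dosages.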

[13] = system: Triticum aestivum (TRZAS); conditions: crop plant compatibility, effect vs untreated controls
Outline: as §3

Zea mays (ZEAMX) = conditions: for Post-emergence action against ZEAMX in %: crop plant compatibility, effect vs untreated controls
Outline: as §3

Viola tricolor (VIOTR) [14] = test: Pre-emergence herbicidal action against VIOTR
Outline: as §1

[15] = system: Pharbitis purpurea (PHBPU); test: Post-emergence herbicidal action against PHBPU
Outline: as §2

Viola tricolor (VIOTR) [16] = test: Post-emergence herbicidal action against VIOTR
Outline: as §2

[17] = system: Matricaria inodora (MATIN); test: Post-emergence herbicidal action against MATIN; conditions: dosage 320 g/ha
Outline: as §2

[18] = system: Amaranthus retroflexus (AMARE); test: Post-emergence herbicidal action against AMARE
Outline: as §2

[19] = system: Alopecurus myosuroides (ALOMY); test: Post-emergence herbicidal action against ALOMY; conditions: visual rating about 3 weeks after treatment vs untreated controls (100% = plants have died, 0% = like control plants)
Outline: as §2

[20] = system: Digitaria sanguinalis (DIGSA); test: Post-emergence herbicidal action against DIGSA; conditions: 320 g/ha, visual rating about 3 weeks after treatment
Outline: as §2

Lolium rigidum (LOLRI) = test: Post-emergence herbicidal action against LOLRI; conditions: dosage 320 g/ha
Outline: as §2

[21] = 80 g/ha, effect in comparison to untreated controls
[22] = 320 g/ha, effect in comparison to untreated controls
[23] = 320 g/ha, visual rating about 3 weeks after treatment
[24] = 20 g/ha, effect vs untreated controls

Row | Post-emergence action against ORYSA in % (Oryza sativa (ORYSA); [21]) [%] | Post-emergence action against ORYSA in % (Oryza sativa (ORYSA); [22]) [%] | Post-emergence action against ZEAMX in % (Zea mays (ZEAMX); 80 g/ha) [%] | Post-emergence action against TRZAS in % ([13]; 20 g/ha) [%] | Post-emergence action against ORYSA in % (Oryza sativa (ORYSA); [24]) [%] | Structure (SMILES) | Post-emergence action against ABUTH in % [2] [%] | Post-emergence action against VERPE in % ([4]; 320 g/ha, VERPE) [%] | Post-emergence action against POLCO in % [6] [%] | Post-emergence action against AVEFA in % (Avena fatua (AVEFA) [11]) [%] | Post-emergence action against ECHCG in % ([12]; dosage 320 g/ha) [%] | Post-emergence action against VERPE in % ([4]; dosage 80 g/ha) [%] | Post-emergence action against PHBPU in % ([15]; dosage 320 g/ha) [%] | Post-emergence action against VIOTR in % (Viola tricolor (VIOTR) [16]; 80 g/ha) [%] | Post-emergence action against VIOTR in % (Viola tricolor (VIOTR) [16]; 320 g/ha) [%] | Post-emergence action against AMARE in % [18, 23] [%] | Post-emergence action against ALOMY in % ([19]; 320 g/ha) [%] | Post-emergence action against DIGSA in % [20] [%] | further results
1 | 10 | 20 | 20 | – | – | O=C(O)COc1nn(-c2ncccc2C(F)(F)F)c(-c2cncc(F)c2)c1I [Example I-186] | 80 | 80 | 80 | 80 | 90 | – | – | – | – | – | – | – | Pre-emergence action against ECHCG in % [1]: 80%; Pre-emergence action against AVEFA in % (Avena fatua (AVEFA) [3]): 80%; Pre-emergence action against SETVI in % (Setaria viridis (SETVI)): 80%; Pre-emergence action against ALOMY [5]: 90%; Pre-emergence action against VERPE in % ([7]; dosage 80 g/ha): 90%; Pre-emergence action against VERPE in % ([7]; dosage 320 g/ha): 90%; Pre-emergence action against AMARE in % [8]: 90%; Pre-emergence action against PHBPU in % [9]: 90%; Pre-emergence action against POLCO in % [10]: 80%; Post-emergence action against ECHCG in % ([12]; dosage 80 g/ha): 80%; Post-emergence action against TRZAS in % ([13]; 80 g/ha): 10%; Pre-emergence action against VIOTR in % (Viola tricolor (VIOTR) [14]; 320 g/ha, Viola tricolor): 90%; Pre-emergence action against VIOTR in % (Viola tricolor (VIOTR) [14]; dosage 80 g/ha): 80%
2 | – | – | – | 0 | – | C=Cc1c(OCC(=O)OCC)nn(-c2ccccn2)c1-c1ccc(F)nc1 [Example I-273] | 80 | 90 | 80 | – | 90 | 80 | 90 | 90 | 90 | 80 | – | – | Post-emergence action against PHBPU in % ([15]; dosage 80 g/ha): 80%; Post-emergence action against MATIN in % [17]: 80%
3 | 0 | 10 | 0 | 0 | 0 | O=C(O)COc1nn(-c2ncccc2F)c(-c2ccnc(F)c2)c1Br [Example I-139] | 80 | 90 | 90 | – | 80 | 80 | 80 | 80 | 90 | 90 | 90 | 90 | Post-emergence action against ALOMY in % ([19]; 80 g/ha): 90%; Post-emergence action against AMARE in % ([18]; 80 g/ha, visual rating about 3 weeks after treatment vs untreated controls (100% = plants have died, 0% = like control plants)): 80%; Post-emergence action against ZEAMX in % (crop plant compatibility) (Zea mays (ZEAMX); 20 g/ha, ZEAMX, effect in comparison to untreated controls): 0%; Post-emergence action against ZEAMX in % (Zea mays (ZEAMX); 320 g/ha): 10%
4 | 0 | 10 | – | 10 | 0 | C[C@@H](Oc1nn(-c2ncccc2F)c(-c2ccnc(F)c2)c1Br)C(=O)O [Example I-140] | 80 | 90 | 90 | 90 | 80 | – | – | 90 | 90 | 90 | 100 | 80 | Post-emergence action against LOLRI in % (Lolium rigidum (LOLRI)): 90%
